Patent US7795456B2, “Insecticidal N-substituted sulfoximines” (Dow AgroSciences LLC, priority 2004, dated 2010)
Read-outs that look alike come from different tables or passages of the source.

Key:
[1] = test system: corn earworm (Helicoverpa zea)
[2] = test system: beet armyworm (Spodoptera exigua)
[3] = test system: fruit fly (Drosophila melanogaster)
[4] = test system: beet armyworm (Spodoptera exigua); experiment: Insecticidal test for beet armyworm in injection assays; settings: 1 h, read-out: BAW SYM: % showing intoxicated symptoms at 10 μg/larva against beet armyworm in injection tests
[5] = test system: cotton aphid (Aphis gossypii); experiment: Insecticidal test for cotton aphid, foliar spray on squash; settings: for pest or weed control at 50 ppm / pest or weed control at 200 ppm: Aphis gossypii, foliar, 72 h; for pest or weed control at 50 ppm: read-out: CA 50: % control at 50 ppm against cotton aphid in foliar spray tests; for pest or weed control at 200 ppm: read-out: CA 200: % control at 200 ppm against cotton aphid in foliar spray tests
[6] = test system: sweet potato whitefly (Bemisia tabaci); experiment: Insecticidal test for sweet potato whitefly, foliar spray on cotton; settings: Bemisia tabaci, in Gossypium hirsutum, foliar, read-out: SPW 200: % control at 200 ppm against sweet potato whitefly in foliar spray tests
[7] = test system: green peach aphid (Myzus persicae); experiment: Insecticidal test for green peach aphid, foliar spray on cabbage seedlings
[8] = test system: yellow fever mosquito (Aedes aegypti) larvae; experiment: whole plant or invertebrate; type: in vivo; settings: 72 h, read-out: YFM 26: % control at 26 ppm against yellow fever mosquito in submerge tests
[9] = 50 μg/cm2, second-instar larvae, 5 days

Row | Compound | pest or weed control at 0.01 mg [4] [%] | pest or weed control at 50 ppm [5] [%] | pest or weed control at 200 ppm [5] [%] | pest or weed control at 26 ppm [8] [%] | CEW 50: % mortality at 50 μg/cm2 against corn earworm in dietary tests [1, 9] | BAW 50: % mortality at 50 μg/cm2 against beet armyworm in dietary tests [2, 9] | FF 25: % mortality at 25 μg/cm2 against fruit fly in dietary tests ([3]; 25 μg/cm2, 48 h) | FF SYM: % showing intoxicated symptoms at 25 μg/cm2 against fruit fly in dietary tests ([3]; 25 μg/cm2, 4 h) | other results
1 | N#CN=S1(=O)CCCC1 [Compound 12, 1-Oxidotetrahydro-1H-1λ^4-thien-1-ylidenecyanamide] | 90 to 100 | 90 to 100 | 90 to 100 | – | – | – | – | – | CEW 50: % mortality at 50 μg/cm2 against corn earworm in dietary tests ([1]; in vivo): D (key: A: 90-100; B: 80-89; C: 70-79; D: 60-69; E: 50-59; F: Less than 50; G: Inactive; H: Not tested); BAW 50: % mortality at 50 μg/cm2 against beet armyworm in dietary tests ([2]; in vivo): F (key: A: 90-100; B: 80-89; C: 70-79; D: 60-69; E: 50-59; F: Less than 50; G: Inactive; H: Not tested); FF 25: % mortality at 25 μg/cm2 against fruit fly in dietary tests ([3]; in vivo): D (key: A: 90-100; B: 80-89; C: 70-79; D: 60-69; E: 50-59; F: Less than 50; G: Inactive; H: Not tested); FF SYM: % showing intoxicated symptoms at 25 μg/cm2 against fruit fly in dietary tests ([3]; in vivo): A (key: A: 90-100; B: 80-89; C: 70-79; D: 60-69; E: 50-59; F: Less than 50; G: Inactive; H: Not tested); % Control at ppm, against cotton aphid: 0.78 ([5]; in vivo): E (key: A: 90-100; B: 80-89; C: 70-79; D: 60-69; E: 50-59; F: Less than 50; G: Inactive; H: Not tested); % Control at ppm, against cotton aphid: 3.12 ([5]; in vivo): E (key: A: 90-100; B: 80-89; C: 70-79; D: 60-69; E: 50-59; F: Less than 50; G: Inactive; H: Not tested); % Control at ppm, against cotton aphid: 12.5 ([5]; in vivo): A (key: A: 90-100; B: 80-89; C: 70-79; D: 60-69; E: 50-59; F: Less than 50; G: Inactive; H: Not tested); % Control at ppm, against cotton aphid: 50 ([5]; in vivo): A (key: A: 90-100; B: 80-89; C: 70-79; D: 60-69; E: 50-59; F: Less than 50; G: Inactive; H: Not tested); pest or weed control at 200 ppm [6]: 80 to 89%; % Control at ppm, against green peach aphid: 12.5 ([7]; in vivo): F (key: A: 90-100; B: 80-89; C: 70-79; D: 60-69; E: 50-59; F: Less than 50; G: Inactive; H: Not tested); % Control at ppm, against green peach aphid: 50 ([7]; in vivo): F (key: A: 90-100; B: 80-89; C: 70-79; D: 60-69; E: 50-59; F: Less than 50; G: Inactive; H: Not tested)
2 | CS(=O)(=NC#N)C(Cc1ccccc1)c1ccc(Cl)nc1 (centres unmarked) [Compound 27] | – | 90 to 100 | 90 to 100 | 80 to 89 | G (Inactive) | G (Inactive) | G (Inactive) | – | –
3 | N#CN=S1(=O)CCCC1Cc1ccc(Cl)nc1 (centres unmarked) [Compound 14] | – | 90 to 100 | 90 to 100 | 90 to 100 | G (Inactive) | G (Inactive) | F (Less than 50) | – | –
4 | N#CN=S1(=O)CCCCC1Cc1ccc(Cl)nc1 (centres unmarked) [Compound 5, 2-[(6-chloropyridin-3-yl)methyl]-1-oxidohexahydro-1λ^4-thiopyran-1-ylidenecyanamide] | 50 to 59 | 90 to 100 | 90 to 100 | 50 to 59 | G (Inactive) | G (Inactive) | G (Inactive) | – | –
5 | CCS(=O)(CC(C)c1ccc(Cl)nc1)=N[N+](=O)[O-] (centres unmarked) [Compound 38] | – | 80 to 89 | 90 to 100 | < 50 | G (Inactive) | G (Inactive) | G (Inactive) | – | –
6 | CS(=O)(=NC#N)C(F)c1ccc(Cl)nc1 (centres unmarked) [Compound 25] | – | 90 to 100 | 90 to 100 | 90 to 100 | G (Inactive) | G (Inactive) | C (70-79) | B (80-89) | –
7 | CS(=O)(CCc1ccc(Cl)nc1)=NC#N (centres unmarked) [Compound 13] | < 50 | 90 to 100 | 90 to 100 | – | G (Inactive) | G (Inactive) | G (Inactive) | – | % Control at ppm, against cotton aphid: 0.195 ([5]; 0.195 ppm, rundown assay): F (Less than 50); % Control at ppm, against cotton aphid: 0.78 ([5]; 0.78 ppm, rundown assay): A (90-100); % Control at ppm, against cotton aphid: 3.12 ([5]; 3.12 ppm, rundown assay): A (90-100); % Control at ppm, against cotton aphid: 12.5 ([5]; 12.5 ppm, rundown assay): A (90-100); % Control at ppm, against cotton aphid: 50 ([5]; 50 ppm, rundown assay): A (90-100); pest or weed control at 200 ppm [6]: 90 to 100%; % Control at ppm, against green peach aphid: 0.78 ([7]; 0.78 ppm, rundown assay, 3 days): F (Less than 50); % Control at ppm, against green peach aphid: 3.12 ([7]; 3.12 ppm, rundown assay, 3 days): C (70-79); % Control at ppm, against green peach aphid: 12.5 ([7]; 12.5 ppm, rundown assay, 3 days): C (70-79); % Control at ppm, against green peach aphid: 50 ([7]; 50 ppm, rundown assay, 3 days): B (80-89)
8 | CS(=O)(=NC#N)C(Br)c1ccc(Cl)nc1 (centres unmarked) [Compound 24] | < 50 | 90 to 100 | 90 to 100 | 90 to 100 | G (Inactive) | G (Inactive) | A (90-100) | F (Less than 50) | –
9 | CCC(c1ccc(Cl)nc1)S(C)(=O)=NC#N (centres unmarked) [Compound 26] | < 50 | 90 to 100 | 90 to 100 | 90 to 100 | G (Inactive) | G (Inactive) | A (90-100) | A (90-100) | –
10 | CC(C)(c1ccc(Cl)nc1)S(C)(=O)=NC#N (centres unmarked) [Compound 9, [1-(6-chloropyridin-3-yl)-1-methylethyl](methyl)oxido-λ^4-sulfanylidenecyanamide] | < 50 | 90 to 100 | 90 to 100 | 90 to 100 | G (Inactive) | G (Inactive) | C (70-79) | A (90-100) | –
11 | N#CN=S1(=O)CCC[C@H]1Cc1ccc(Cl)nc1 (some centres unmarked) [Compound 21] | – | 90 to 100 | 90 to 100 | 80 to 89 | G (Inactive) | G (Inactive) | G (Inactive) | – | –
12 | N#CN=S1(=O)CCCC1Cc1cnc(Cl)s1 (centres unmarked) [Compound 11, 2-[(2-chloro-1,3-thiazol-5-yl)methyl]-1-oxidotetrahydro-1H-1λ^4-thien-1-ylidenecyanamide] | 60 to 69 | 90 to 100 | 90 to 100 | 90 to 100 | G (Inactive) | G (Inactive) | D (60-69) | – | –
13 | CS(=O)(=NC#N)C(Cl)c1ccc(Cl)nc1 (centres unmarked) [Compound 23] | < 50 | 90 to 100 | 90 to 100 | 90 to 100 | G (Inactive) | G (Inactive) | A (90-100) | A (90-100) | –
